The target of one data set is T1, 1b (BK) NS5BΔ21 (Hepatitis C virus genotype 1b, UniProt P26663).
T1 construct: 100 nM 1b (BK) NS5BΔ21
Description: HCV polymerase inhibition assay. It counts as biochemical. Here is the method: HCV polymerase reactions were carried out using a modified method of Howe et al., Antimicrobial Agents and Chemotherapy 2004 48(12): 4813-4821. Reactions contained a final concentration of, 0.5% DMSO, 100 nM 1b (BK) NS5BΔ21, 20 mM Tris-HCl pH 7.5, 5 mM MgCl2, 5 mM MnCl2, 3 mM DTT, 0.05% BSA, 0.2 U/μL RNasin, 10 μg/mL Poly(rC) template, GTP (at Km) and 0.05 μCi/μL ^33P-GTP in a total reaction volume of 50 μL. Compounds were tested in a three fold dilution series, for example starting from 50 μM. Reactions were initiated with the addition of GTP and terminated after […] with 50 μL ice cold 0.2 M EDTA. Terminated reactions were transferred to DEAE 96-well filter plates, unincorporated nucleotides washed from the filters and 50 μL scintillation fluid added prior to reading on a scintillation counter. The compound concentration that reduced ^33P-GTP incorporation by 50% (IC50) was calculated using non-linear regression.

In data set [1] the test system is genotype 1b (Con 1) subgenomic replicon cell line. Description: HCV replicon assay, genotype 1b, Renilla luciferase reporter. It counts as cell-based. The settings on record: Hepatitis C virus; 72 hours incubation, Renilla luciferase activity. Here is the method:
A genotype 1b (Con 1) subgenomic replicon cell line based on Blight et al., Science 2000 290: 1972-1974, modified to express a Renilla luciferase reporter gene was used to assess antiviral activity of test compounds. Cell cultures were maintained in a sub-confluent state in DMEM with glutamine, 10% heat-inactivated foetal bovine serum (FBS) and G418 (Geneticin®).
For assay, cells were seeded at a density of 7000 cells/well into 96 well tissue culture trays in culture media lacking G418. Compounds were tested in a three fold dilution series, for example starting from 50 uM. After 72 hours incubation at 37° C. and 5% CO2, Renilla luciferase activity was quantified via the Promega Renilla Luciferase or Renilla-Glo™ Luciferase Assay Systems (Promega corporation. The same method was employed for replicon assays using subgenomic genotype 1a (H77) and 2a (JFH-1) replicon cell lines with a seeding cell density of 5000 cells/well for the 2a cell lines.
The compound concentration that reduced luciferase activity by 50% (EC50) was calculated using non-linear regression.

The nature of data set [2]: Aqueous solubility (laser nephelometry). It counts as physicochemical. The note with it: for solubility at 30 min: aqueous assay buffer pH 6.5 with 1% DMSO, aqueous buffer, kinetic from dmso stock, pH 6.5, 1% DMSO, 30 minute incubation at 25° C. The protocol:
Test compounds prepared in DMSO were screened in duplicate over a range of concentrations (1.6-100 ug/mL) in different aqueous media (for example a pH6.5 buffers which are relevant to the stomach and upper regions of the small intestine and therefore important when predicting the amount of drug likely to be in solution following oral administration). Test compounds were serially diluted in 100% DMSO ranging from 10-0.16 mg/mL. These titrated DMSO stocks were then further diluted 1:100 with assay buffer and added to test plates (UV Star Griener 384 well plates), maintaining the DMSO concentration at 1%.

[3] abbreviates: read-out: solubility ranges at pH 6.5.

pEC50, pIC50: −log10 of the molar value. ≈ marks a conversion by molar mass, not a printed value. Like-named read-outs stand apart in the source and are kept apart here.

For orientation: pIC50 means −log10 of the IC50, conventionally taken in molar units. Lower therefore signals a large IC50. Broadly, the pEC50 is the negative decadic logarithm of the EC50, by convention in mol/L. High values mean a low EC50, low ones a high EC50. As usually defined, the solubility is the concentration that dissolves in the medium under given conditions.

T1 sequence (P26663 2420-2989, stated change not applied): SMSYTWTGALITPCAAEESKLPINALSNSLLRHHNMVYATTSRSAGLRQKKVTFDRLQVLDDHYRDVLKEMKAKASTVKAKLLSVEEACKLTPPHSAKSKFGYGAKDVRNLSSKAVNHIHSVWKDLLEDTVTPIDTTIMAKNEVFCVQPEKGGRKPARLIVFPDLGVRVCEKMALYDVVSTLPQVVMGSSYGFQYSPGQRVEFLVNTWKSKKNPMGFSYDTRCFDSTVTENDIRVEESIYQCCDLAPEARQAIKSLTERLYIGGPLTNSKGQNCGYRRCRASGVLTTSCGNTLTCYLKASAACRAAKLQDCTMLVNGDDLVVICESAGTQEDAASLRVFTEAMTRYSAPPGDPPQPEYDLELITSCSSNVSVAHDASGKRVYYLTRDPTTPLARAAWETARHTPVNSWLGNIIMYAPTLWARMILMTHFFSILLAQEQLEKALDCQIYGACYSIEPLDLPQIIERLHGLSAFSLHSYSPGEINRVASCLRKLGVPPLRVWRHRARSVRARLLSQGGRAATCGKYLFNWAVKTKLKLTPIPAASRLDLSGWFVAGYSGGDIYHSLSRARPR

As for `CNC(=O)c1c2cc(C3CC3)c(N(CC[C@@H]3CO[C@H]3C)S(C)(=O)=O)cc2nn1-c1ccc(Cl)cc1` (single isomer, unassigned) [Compound 32], the pIC50 against 1b (BK) NS5BΔ21 was 6.31 to 7.00. The same molecule gave a pEC50 in data set [1] of more than 7.00. The solubility at 30 min in data set [2] (setting [3]) was 25 to 50 µg/mL (≈ 48.4 to 96.7 µM).
`CNC(=O)c1c2cc(C3CC3)c(N(CC[C@H]3CO[C@@H]3C)S(C)(=O)=O)cc2nn1-c1ccc(Cl)cc1` (single isomer, unassigned) [Compound 33] had a pIC50 at 1b (BK) NS5BΔ21 of 6.31 to 7.00. The molecule also showed a pEC50 in data set [1] of more than 7.00. The solubility at 30 min in data set [2] (setting [3]) lay in the range of 50 to 100 µg/mL (≈ 96.7 to 193 µM).
For `CNC(=O)c1c2cc(C3CC3)c(N(CCC3COC3)S(C)(=O)=O)cc2nn1-c1ccc(C)cc1` [Compound 3, 5-Cyclopropyl-N-methyl-2-(4-methylphenyl)-6-{(methylsulfonyl)[2-(oxetan-3-yl)ethyl]amino}-2H-indazole-3-carboxamide], in that order: more than 7.00, more than 7.00 and 12.5 to 25 µg/mL (≈ 25.9 to 51.8 µM).
For `CNC(=O)c1c2cc(C3CC3)c(N(CCC3CN(C(C)=O)C3)S(C)(=O)=O)cc2nn1-c1ccc(Cl)cc1` [Compound 8, 6-{[2-(1-acetylazetidin-3-yl)ethyl](methylsulfonyl)amino}-2-(4-chlorophenyl)-5-cyclopropyl-N-methyl-2H-indazole-3-carboxamide], in that order: 6.31 to 7.00, more than 7.00 and 25 to 50 µg/mL (≈ 45.9 to 91.9 µM).
For `CNC(=O)c1c2cc(C3CC3)c(N(CC3COC3)S(C)(=O)=O)cc2nn1-c1ccc(Cl)cc1` [Compound 14, 2-(4-chlorophenyl)-5-cyclopropyl-N-methyl-6-[(methylsulfonyl)(oxetan-3-ylmethyl)amino]-2H-indazole-3-carboxamide], on 1b (BK) NS5BΔ21, the negative logarithm of the IC50 (pIC50) was 6.31 to 7.00. The molecule further gave a pEC50 in data set [1] of more than 7.00. Also, in data set [2] (read-out: Solubility at pH 6.5), the solubility at 30 min lay within 25 to 50 µg/mL (≈ 51.1 to 102 µM). Besides, the “solubility at pH 6.5 (in words)” value in data set [2] (pH 6.5, good solubility when the value is >25 ug/mL) is recorded as “good solubility”.
In turn, `CNC(=O)c1c2cc(C3CC3)c(N(CCC3OCC3C)S(C)(=O)=O)cc2nn1-c1ccc(Cl)cc1` (centres unmarked) [Compound 17, 3,5-anhydro-1-{[2-(4-chlorophenyl)-5-cyclopropyl-3-(methylcarbamoyl)-2H-indazol-6-yl](methylsulfonyl)amino}-1,2,4-trideoxy-4-methylpentitol] gave a pIC50 against 1b (BK) NS5BΔ21 of 6.31 to 7.00. The pEC50 in data set [1] was 6.31 to 7.00. For the same molecule, the solubility at 30 min in data set [2] (setting [3]) was 50 to 100 µg/mL (≈ 96.7 to 193 µM).
Turning to `CNC(=O)c1c2cc(C3CC3)c(N(CC(F)C3COC3)S(C)(=O)=O)cc2nn1-c1ccc(Cl)cc1` (centres unmarked) [Compound 18, 2-(4-chlorophenyl)-5-cyclopropyl-6-{[2-fluoro-2-(oxetan-3-yl)ethyl](methylsulfonyl)amino}-N-methyl-2H-indazole-3-carboxamide], the pIC50 at 1b (BK) NS5BΔ21 is more than 7.00. Further, in data set [1], the pEC50 was 6.31 to 7.00. Further, in data set [2] (setting [3]), the solubility at 30 min was 50 to 100 µg/mL (≈ 96 to 192 µM).
For `CNC(=O)c1c2cc(C3CC3)c(N(CCC3(F)COC3)S(C)(=O)=O)cc2nn1-c1ccc(Cl)cc1` [Compound 26, 2-(4-chlorophenyl)-5-cyclopropyl-6-[2-(3-fluorooxetan-3-yl)ethyl-methylsulfonyl-amino]-N-methyl-indazole-3-carboxamide], in that order: more than 7.00, more than 7.00 and 25 to 50 µg/mL (≈ 48 to 96 µM).
For `CNC(=O)c1c2cc(C3CC3)c(N(CCC3(OC)CNC3)S(C)(=O)=O)cc2nn1-c1ccc(Cl)cc1` [Compound 29, 2-(4-chlorophenyl)-5-cyclopropyl-6-[2-(3-methoxyazetidin-3-yl)ethyl-methylsulfonyl-amino]-N-methyl-indazole-3-carboxamide], in that order: 5.00 to 6.00, 5.00 to 6.00 and 12.5 to 25 µg/mL (≈ 23.5 to 47 µM).
For `CNC(=O)c1c2cc(C3CC3)c(N(CCC3(OC)CN(C(C)=O)C3)S(C)(=O)=O)cc2nn1-c1ccc(Cl)cc1` [Compound 30, 6-[2-(1-acetyl-3-methoxy-azetidin-3-yl)ethyl-methylsulfonyl-amino]-2-(4-chlorophenyl)-5-cyclopropyl-N-methyl-indazole-3-carboxamide], in that order: 6.00 to 6.30, 6.00 to 6.30 and 50 to 100 µg/mL (≈ 87.1 to 174 µM).
The molecule `CNC(=O)c1c2cc(C3CC3)c(N(CCC3(CNC(=O)OC(C)(C)C)COC3)S(C)(=O)=O)cc2nn1-c1ccc(C)cn1` [Compound 35, tert-butyl N-[[3-[2-[[5-cyclopropyl-3-(methylcarbamoyl)-2-(5-methyl-2-pyridyl)indazol-6-yl]-methylsulfonyl-amino]ethyl]oxetan-3-yl]methyl]carbamate] had a negative-log EC50 (pEC50) in data set [1] of 5.00 to 6.00. For the same molecule, the solubility at 30 min in data set [2] (setting [3]) was in the range of 12.5 to 25 µg/mL (≈ 20.4 to 40.8 µM).
On the same counts, the results for `CNC(=O)c1c2cc(C3CC3)c(N(CCC3(OC)COC3)S(C)(=O)=O)cc2nn1-c1ccc(Cl)cc1` [Compound 36, 2-(4-chlorophenyl)-5-cyclopropyl-6-[2-(3-methoxyoxetan-3-yl)ethyl-methylsulfonyl-amino]-N-methyl-indazole-3-carboxamide] are 6.31 to 7.00 and 50 to 100 µg/mL (≈ 93.8 to 188 µM).
